Experimental data: US20220364181A1, “METHOD AND A KIT FOR PREDICTING THE SUSCEPTIBILITY TO STIMULATOR OF INTERFERON GENES (STING) AGONISTS IN A CANCER PATIENT” (China Medical University, priority 2021, published 2022)

How the values were obtained:
EMT6 cell line = experiment: In vitro assay for susceptibility to STING agonists, ELISA of interferon β, EMT6; format: cell-based, mouse; conditions: EMT6 MTAP(−) cells compared with MTAP(+) cells, 100 μg/mL STING agonist, 24 hours
Protocol: (§1) Two cancer cell lines, the mouse mammary carcinoma cell line EMT6 and the mouse colon adenocarcinoma cell line MC38, were used in the present invention as the models of cell assays.
(§2) These two cancer cell lines were divided into two groups, one group was treated with cell culture medium, and named as MTAP (+); the other group was treated with siRNA of the S-methyl-5′-thioadenosine phosphorylase (MTAP) for gene knock-out, and named as MTAP(−).
In the present invention, two cancer cell lines (EMT6 cell line and MC38 cell line) of MTAP (+) and MTAP (−) were stimulated with STING agonists, and then the expression level of Type I Interferon was measured to determine the activity of the STING agonists. […]
(§3) The cells were harvested, and a portion of the cells was used for enzyme-linked immunosorbent assay (ELISA) to detect the expression level of interferon β (IFN β); the other portion was used for extraction of mRNA with TRizol, and then real-time quantitative reverse transcription polymerase chain reaction (RT-qPCR) was used to amplify its DNA fragments for detecting the gene expression levels of the interferon beta gene (IFNb1) and interferon-stimulated genes MX1 and ISG15.

MC38 cell line = experiment: In vitro assay for susceptibility to STING agonists, ELISA of interferon β, MC38; format: cell-based, mouse; conditions: 100 μg/mL STING agonist, 24 hours
Protocol: as §1, §2
In the present invention, two cancer cell lines (EMT6 cell line and MC38 cell line) of MTAP (+) and MTAP (−) were stimulated with STING agonists, and then the expression level of Type I Interferon was measured to determine the activity of the STING agonists.
The STING agonists used in the present invention included MIW815 and E7766, and two cells were divided into six groups, respectively, the MTAP(+) Control Group, the MTAP(−) Control Group, MTAP(+) MIW815 Group, MTAP(+) E7766 Group, MTAP(−) MIW815 Group and MTAP(−) E7766 Group.
In this assay, after culturing the EMT6 cell line and the MC38 cell line for 12 hours, the medium of the cells in the MTAP(+) STING Group and the MTAP(−) STING Group were replaced with a medium containing 100 μg/mL of STING agonists, and then subjected to stimulation for 24 hours.
as §3

EMT6 cell lines = experiment: Animal experiment, tumor size of mice inoculated with EMT6 cell lines; format: in vivo
Protocol: In the present invention, the EMT6 cell lines with expressed MTAP (MTAP(+) Group) and the EMT6 cell lines with no expressed MTAP (MTAP(−) Group) were inoculated into mice for in vivo assays of the activity of STING agonists.
In this experiment, MIW815 was selected as the STING agonist, and the mice were divided into 4 groups, 5 mice in each group, namely the MTAP(+) Control Group, the MTAP(−) Control Group, the MTAP(+) MIW815 Group and the MTAP(−) MIW815 Group.
Drugs were administered after the cancer cells grew to be more than 100 mm^3. Phosphate buffered saline solution (PBS) was given to the MTAP(+) Control Group and the MTAP(−) Control Group; and 50 μg of STING agonist MIW815 was given to the MTAP(+) MIW815 Group and the MTAP(−) MIW815 Group at Day 9, 12 and 16.

[1] = MC38 MTAP(−) cells compared with MTAP(+) cells

SMILES	expression of interferon β (IFN β), ELISA (EMT6 cell line)	expression of interferon β (IFN β), ELISA (MC38 cell line; MC38 MTAP(+) cells)	expression of interferon β (IFN β), ELISA (MC38 cell line; [1])	tumor size (EMT6 cell lines; EMT6 MTAP(+) tumors, 50 μg at Day 9, 12 and 16, compared with MTAP(+) Control Group (PBS))	tumor size (EMT6 cell lines; EMT6 MTAP(−) tumors, 50 μg at Day 9, 12 and 16, compared with MTAP(−) Control Group (PBS))
O=[P@]1(S)OC[C@H]2O[C@@H]3[C@H](F)[C@@H]2O[P@](=O)(S)OC[C@H]2O[C@H]([C@H](F)[C@@H]2O1)n1cnc2c(ncnc21)NC/C=C/CNc1ncnc2c1ncn23 [E7766]	significantly lower	effectively stimulated the expression of IFN 13	significantly lower	–	–
Nc1ncnc2c1ncn2[C@@H]1O[C@@H]2COP(=O)([S-])O[C@@H]3[C@H](O)[C@@H](COP([O-])(=S)O[C@H]2[C@H]1O)O[C@H]3n1cnc2c(N)ncnc21.[Na+].[Na+] (some centres unmarked) [MIW815]	significantly lower	effectively stimulated the expression of IFN 13	significantly lower	significantly smaller	not statistically different
